Test [1] deals with Hs 746T (human gastric carcinoma cell line). The experiment in a line: 48 hr CTG viability assay, Hs 746T. Format: cell-based. The settings on record: Hs746T, 48 hr CTG, read-out: Hs 746T IC50. As for the experimental part:
(§1) A viability assay was conducted for 48 hours to evaluate the inhibition of cancer cell growth by proteasome inhibitors. Briefly, the candidate cell line was plated with a 96-well plate following density of cells, respectively. 6×10^3 Cells/well for A2780 (human ovarian cancer cell line) and MDA-MB-468 (breast carcinoma), 8×10^3 Cells/well for Hs746T (human gastric carcinoma cell line), 1.1×10^4 Cells/well for MM1 S and RPMI 8226 (multiple myeloma). After 24 hours, the cells were treated with various concentrations of the compound (ranging from 0.0015 uM to 10 uM). […] After 48 hours of incubation at 37° C., 5% CO2 incubator, cells were analyzed for viability using the CellTiter-Glo Luminescent Cell Viability assay (Promega, Cat #G7570). All viability assays were performed in duplicate and Luminescence was read using an Envision (Perkin Elmer, USA). Data were analyzed using XLfit software. […] (human gastric carcinoma cell line), MM1 S (B lymphoblast cell line), and RPMI 8226 (B lymphocyte cell line, multiple myeloma). Inhibition is indicated as IC50 [nM] (“-”=not measured).

For test [2], the system named is MM1 S (B lymphoblast cell line). The experiment in a line: 48 hr CTG viability assay, MM1S. Format: cell-based. The settings on record: Homo sapiens, 48 hr CTG, read-out: MM1S IC50. The protocol:
as §1

The subject of test [3] is RPMI 8226 (B lymphocyte cell line, multiple myeloma). The experiment in a line: 48 hr CTG viability assay, RPMI 8226. The settings on record: Homo sapiens, RPMI-8226; 48 hr CTG; read-out: RPMI-8226 IC50. It is filed as cell-based. As for the experimental part: as §1
In test [4] the target is T1, β5 subunit of the human constitutive proteasome (CPS) (Homo sapiens, UniProt P28074).
T1 construct: purchased Boston Biochem E-360
The test is described as follows: β5 inhibition assay, human constitutive proteasome (Suc-LLVY-AMC). It is filed as biochemical. As to conditions: IC50 class, Suc-LLVY-AMC substrate. As for the experimental part:
The enzymatic activity of the β5 subunit of the human constitutive proteasome (CPS) is analyzed. In another assay, which differs from the assay of the human constitutive proteasome only in using the human immunoproteasome (IPS) the enzymatic activity of the β5 subunit of the human immunoproteasome (IPS) is analyzed. […] Inhibition is indicated as IC50 [nM] (“-”=not measured).

The target of test [5] is T2, β5 subunit of the human immunoproteasome (IPS) (Homo sapiens, UniProt P28062).
T2 construct: purchased Boston Biochem E-370
The experiment in a line: β5 inhibition assay, human immunoproteasome (Suc-LLVY-AMC). It is filed as biochemical. As to conditions: IC50 class, Suc-LLVY-AMC substrate. The gist of the method:
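β5 activity is read as liberated AMC fluorescence (355/460 nm) after 4 h dark reaction at RT with 22.6 μM Suc-LLVY-AMC, stopped by 1 μM bortezomib. Beforehand, 1 nM human IPS and compound sat 10 min at RT in HEPES pH 7.5 buffer containing NaCl, 0.02% SDS and DTT.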

Test [6] concerns A549 (human lung carcinoma cell line). The experiment in a line: Glo assay of A549 cells (Table 3; ProteasomeGlo plating scheme). The settings on record: Homo sapiens; A549 cells; read-out: PGLo A549. Format: cell-based. From the text:
Inhibition is indicated as IC50 [nM] (“-”=not measured). […] • Chymotrypsin-Like Cell-Based Proteasome-GloTM Assay (Promega; […]) • Cell culture 384-well plates (Greiner BioOne; 781080) • Dispensing cassette, MultiDrop Standard tube dispensing cassette (Thermo Scientific; 24072670) • DPBS (Pan BioTech; P04-36500) • Cell culture 384-well plates (Greiner BioOne; 781080) • CPD source plate: diamond-shape plate (Labcyte; LP-0200) • Intermediate plate (Labcyte; P-05525) [table] • a. Remove the plates with cells from the incubator. • b. Take all the plates including the compound plate, intermediate plate and Staurosporine plate to the ECHO. • c. Click on “Open” in the ECHO software and select the protocol “QLI5_25ul_30 uM-Grenier”. • d. Follow the on-screen prompts and instructions once you click “Start” to insert the compound plate, intermediate plate and destination plates. • e. Change the final number of destination plates on the program. • f. Follow the on-screen prompts and instructions once you click “Start” to load the Staurosporine and destination plates. • g. Once all the compounds, DMSO and Staurosporine have been transferred, place the destination plates in a wet tissue box. • h. Place the destination plates back into the incubator and incubate at 37° C., 5% CO2 for 105 minutes. • i. Re-seal all the compound+Stauro diamond and intermediate plates and store in the dark. Chymotrypsin like ProteasomeGlo Assay • 1. Thaw the components of the ProteasomeGlo assay at room temperature including the ProteasomeGlo Buffer, the lyophilized Luciferin Detection Reagent and the Suc-LLVY-Glo Substrate. • 2. Reconstitute the Luciferin Detection Reagent in the amber coloured bottle by adding 50 ml of the ProteasomeGlo Buffer. • 3. Vortex the Suc-LLVY-Glo Substrate briefly to reconstitute the Substrate well. • 4. Spin down the Substrate and add 250 μl of the Substrate to the reconstituted Luciferin Detection Reagent from step 2. • 5. Briefly vortex the amber bottle with the mix to prepare a homogenous solution. • 6. Place the mix prepared in step 5 to sit at room temperature for 60 minutes. • 7. After 60 minutes, pipette 25 μl of the mix from step 5 into all wells with the cells. • 8. Shake the plates for 2-5 minutes to ensure the complete mixing of the ProteasomeGlo reagent with the cells. • 9. Leave the plates in the dark for 10-15 minutes. • 10. Measure the luminescence read-out using the Viktor and the protocol “Luminescence_384Well_0.2 sec”. (Note: The Protoeasome-GloTM Reagent (combined Proteasome-GloTM Substrate, Proteasome-GloTM Buffer and Luciferin Detection Reagent) can be stored at 4° C. or -20° C. for 1 month with minimal loss of activity.)

The test system of a further test is HT-29 cells. The experiment in a line: CellTiter-Glo luminescent cell viability assay with HT-29 cells (72h incubation). Format: cell-based, human. As to conditions: Homo sapiens, HT-29, HT29 cells, read-out: CTG HT29. In short, it runs like this: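 Viability read as CellTiter-Glo luminescence after 72 h compound exposure, with 10 μM staurosporine and DMSO as control wells. Seeding 400 cells per well, compound added 24 h post-plating; IC50 from curve fitting.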

Bounds are passed on as bounds.

Regarding `Cc1ccc2cc1CNC(=O)[C@H](CCc1ccccc1)NC(=O)[C@@H](NS(=O)(=O)C1CCCCC1)CC(=O)N1CCCC(CCO2)C1` (stereo partly shown) [Compound 579], the IC50 in test [1], in test [2] and in test [3] was less than 100 nM throughout.
As to `Cc1ccc2cc1CNC(=O)[C@H](CCc1ccccc1)NC(=O)[C@@H](NC(=O)C1(CO)CCC1)CC(=O)N1CCCC(CCO2)C1` (stereo partly drawn) [Compound 670, 1-(hydroxymethyl)-N-((9S,12S)-5^4-methyl-8,11,14-trioxo-9-phenethyl-4-oxa-7,10-diaza-1(3,1)-piperidina-5(1,3)-benzenacyclotetradecaphane-12-yl)cyclobutane-1-carboxamide], the IC50 in test [4], in test [5], in test [2], in test [3] and in test [6] was less than 100 nM in each case.
As for `Cc1ccc2cc1CNC(=O)[C@H](CCc1ccccc1)NC(=O)[C@@H](NC(=O)CCOC1CC3(C1)CN(C(=O)OC(C)(C)C)C3)CC(=O)N1CCCC(CCO2)C1` (stereo partly shown) [Compound 577], the IC50 in test [1], in test [2] and in test [3] was less than 100 nM in each case.
For the compound `Cc1ccc2cc1CNC(=O)[C@H](CCc1ccccc1)NC(=O)[C@@H](NC(=O)C(C)(C)CO)CC(=O)N1CCC[C@H](CCO2)C1` [Compound 573], the IC50 in test [2] and in test [3] was less than 100 nM in each case.
On to `Cc1ccc2cc1CNC(=O)[C@H](CCc1ccccc1)NC(=O)[C@@H](NC(=O)C(C)(C)CF)CC(=O)N1CCCC(CCO2)C1` (stereo partly drawn) [Compound 650, 3-fluoro-2,2-dimethyl-N-((9S,12S)-5^4-methyl-8,11,14-trioxo-9-phenethyl-4-oxa-7,10-diaza-1(3,1)-piperidina-5(1,3)-benzenacyclotetradecaphane-12-yl)propanamide], for which the IC50 in test [4], in test [5], in test [2], in test [3] and in test [6] was less than 100 nM each time.
`Cc1ccc2cc1CNC(=O)[C@H](CCc1ccccc1)NC(=O)[C@@H](NC(=O)C(C)(C)CO)CC(=O)N1CCC[C@@H](CCO2)C1` [Compound 644, 3-hydroxy-2,2-dimethyl-N-((13S,9S,12S)-5^4-methyl-8,11,14-trioxo-9-phenethyl-4-oxa-7,10-diaza-1(3,1)-piperidina-5(1,3)-benzenacyclotetradecaphane-12-yl)propanamide]: the IC50 in test [4], in test [5], in test [2], in test [3] and in test [6] was less than 100 nM each time.
For `Cc1ccc2cc1CNC(=O)[C@H](CCc1ccccc1)NC(=O)[C@@H](N1CC(C)(C)NC1=O)CC(=O)N1CCCC(CCO2)C1` (stereo partly drawn) [Compound 733, (9S,12S)-12-(4,4-dimethyl-2-oxoimidazolidin-1-yl)-5^4-methyl-9-phenethyl-4-oxa-7,10-diaza-1(3,1)-piperidina-5(1,3)-benzenacyclotetradecaphane-8,11,14-trione], the IC50 in test [4] was in the range of 1000 to 5000 nM; in test [5] it was 100 to 500 nM; in test [2], 100 to 500 nM; in test [3], 1000 to 5000 nM; in test [6], 1000 to 5000 nM.
`Cc1ccc2cc1CNC(=O)[C@H](CCc1ccccc1)NC(=O)[C@@H](NC(=O)C1(CO)CCCC1)CC(=O)N1CCCC(CCO2)C1` (stereo partly drawn) [Compound 689, 1-(hydroxymethyl)-N-((9S,12S)-5^4-methyl-8,11,14-trioxo-9-phenethyl-4-oxa-7,10-diaza-1(3,1)-piperidina-5(1,3)-benzenacyclotetradecaphane-12-yl)cyclopentane-1-carboxamide]: the IC50 in test [4], in test [5], in test [2], in test [3] and in test [6] was less than 100 nM each time.
On to `COC(C(=O)N[C@H]1CC(=O)N2CCCC(CCOc3ccc(C)c(c3)CNC(=O)[C@H](CCc3ccccc3)NC1=O)C2)c1ccc(NC(C)=O)cc1` (stereo partly drawn) [Compound 323, 2-(4-acetamidophenyl)-2-methoxy-N-((9S,12S)-5^4-methyl-8,11,14-trioxo-9-phenethyl-4-oxa-7,10-diaza-1(3,1)-piperidina-5(1,3)-benzenacyclotetradecaphane-12-yl)acetamide], for which the IC50 (in test [4]; in test [5]; in test [6]; in the test with HT-29 cells) was less than 100 nM each time.
Consider `Cc1ccc2cc1CNC(=O)[C@H](CCc1ccccc1)NC(=O)[C@@H](NC(=O)C(C)(C)CN)CC(=O)N1CCCC(CCO2)C1` (stereo partly drawn) [Compound 682, 3-amino-2,2-dimethyl-N-((9S,12S)-5^4-methyl-8,11,14-trioxo-9-phenethyl-4-oxa-7,10-diaza-1(3,1)-piperidina-5(1,3)-benzenacyclotetradecaphane-12-yl)propanamide], for which the IC50 in test [4], in test [5], in test [2], in test [3] and in test [6] was less than 100 nM throughout.
As to `Cc1ccc2cc1CNC(=O)[C@H](CCc1ccccc1)NC(=O)[C@@H](NC(=O)Cc1ccc(NC(=O)[C@@H](N)CC(=O)O)cc1C)CC(=O)N1CCCC(CCO2)C1` (stereo partly shown) [Compound 578], the IC50 in test [1], in test [2] and in test [3] was less than 100 nM each time.
With `Cc1ccc2cc1CNC(=O)[C@H](CCc1cccnc1)NC(=O)[C@@H](NC(=O)Cc1ccccc1F)CC(=O)N1CCCC(CCO2)C1` (stereo partly drawn) [Compound 600, 2-(2-fluorophenyl)-N-((9S,12S)-5^4-methyl-8,11,14-trioxo-9-(2-(pyridin-3-yl)ethyl)-4-oxa-7,10-diaza-1(3,1)-piperidina-5(1,3)-benzenacyclotetradecaphane-12-yl)acetamide], the IC50 in test [4], in test [5], in test [2] and in test [3] was less than 100 nM throughout.

For the origin of these results see patent US20240415819A1, “MACROCYCLIC COMPOUNDS AS PROTEASOME SUBUNIT BETA TYPE-5 INHIBITORS” (Lead Discovery Center GmbH, priority 2021, published 2024).
